From patent US20220016115A1, “USP19 INHIBITORS FOR USE IN THERAPY” (ALMAC DISCOVERY LIMITED, priority 2018, published 2022)

biological target: T1, USP19 (Homo sapiens, UniProt O94966); test: USP19 fluorescence polarisation (FP) homogeneous assay; assay type: biochemical; design: Full-length USP19 was purchased from Boston Biochem (E-576); purchased Boston Biochem E-576; conditions: Ubiquitin-Lys-TAMRA substrate, full-length USP19 2.5 nM, average of at least two duplicate experiments
T1 sequence (O94966 1-1318): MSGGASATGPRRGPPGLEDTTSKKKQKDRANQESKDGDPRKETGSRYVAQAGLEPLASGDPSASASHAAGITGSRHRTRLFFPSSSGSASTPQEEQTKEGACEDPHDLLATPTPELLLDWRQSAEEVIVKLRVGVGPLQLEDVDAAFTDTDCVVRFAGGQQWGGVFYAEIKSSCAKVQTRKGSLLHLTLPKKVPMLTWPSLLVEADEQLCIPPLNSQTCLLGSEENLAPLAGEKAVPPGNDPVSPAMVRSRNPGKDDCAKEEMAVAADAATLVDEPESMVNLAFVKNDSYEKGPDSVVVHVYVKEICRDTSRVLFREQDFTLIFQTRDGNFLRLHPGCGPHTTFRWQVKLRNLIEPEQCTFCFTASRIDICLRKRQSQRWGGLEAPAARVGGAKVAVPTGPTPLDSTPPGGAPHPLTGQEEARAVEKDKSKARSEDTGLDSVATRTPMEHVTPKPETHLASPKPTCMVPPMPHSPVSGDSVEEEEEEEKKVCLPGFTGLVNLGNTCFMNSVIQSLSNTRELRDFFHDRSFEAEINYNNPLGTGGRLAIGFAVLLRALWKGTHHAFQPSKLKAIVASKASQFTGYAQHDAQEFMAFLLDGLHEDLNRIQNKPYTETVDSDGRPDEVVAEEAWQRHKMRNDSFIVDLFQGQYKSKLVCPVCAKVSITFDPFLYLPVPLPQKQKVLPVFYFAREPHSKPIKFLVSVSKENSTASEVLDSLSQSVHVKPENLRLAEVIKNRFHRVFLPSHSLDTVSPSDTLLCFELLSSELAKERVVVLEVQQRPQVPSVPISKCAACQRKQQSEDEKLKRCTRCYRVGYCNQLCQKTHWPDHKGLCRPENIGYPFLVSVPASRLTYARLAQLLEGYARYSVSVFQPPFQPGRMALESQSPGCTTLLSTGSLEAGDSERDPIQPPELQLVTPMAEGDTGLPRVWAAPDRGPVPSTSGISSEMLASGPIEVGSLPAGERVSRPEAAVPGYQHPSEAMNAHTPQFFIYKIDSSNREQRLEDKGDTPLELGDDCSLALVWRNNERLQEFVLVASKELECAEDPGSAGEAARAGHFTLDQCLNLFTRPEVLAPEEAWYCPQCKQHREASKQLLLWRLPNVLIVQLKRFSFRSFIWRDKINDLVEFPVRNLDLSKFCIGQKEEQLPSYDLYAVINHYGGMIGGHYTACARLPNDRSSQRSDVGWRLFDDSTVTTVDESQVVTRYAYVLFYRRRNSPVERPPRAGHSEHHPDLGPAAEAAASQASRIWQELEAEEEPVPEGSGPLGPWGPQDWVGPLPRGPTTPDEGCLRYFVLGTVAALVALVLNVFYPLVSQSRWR
Protocol: Unless otherwise stated, all other reagents were purchased from Sigma. Enzymatic reactions were conducted in black flat bottom polystyrene 384-well plates (Nunc) and 30 μL total volume. […] Inhibitors were stored as 10 mM DMSO stocks in an inert environment (low humidity, dark, low oxygen, room temperature) using the Storage Pod System and serial dilutions were prepared in buffer just prior to the assay (from 200 μM to 2 μM, 8-18 data point curve). Following incubation at RT for 30 min, the enzymatic reactions were initiated by dispensing the Ub substrate (500 nM, 10 μL). FP was measured every 15 min over a period of 90 min (within the linear range of the assay) using a Synergy 4 plate reader (BioTek) exciting at 530 nm and measuring the amount of parallel and perpendicular light at 575 nm. The FP signal was subsequently normalised to the no compound control.

| Compound | IC50 |
| --- | --- |
| 3-(((S)-10-Hydroxy-7-((2R,3R)-2-phenylpyrrolidine-3-carbonyl)-7-azaspiro[4.5]decan-10-yl)methyl)-6-phenylpyrimidin-4(3H)-one and 3-(((S)-10-Hydroxy-7-((2a3S)-2-phenylpyrrolidine-3-carbonyl)-7-azaspiro[4.5]decan-10-yl)methyl)-6-phenylpyrimidin-4(3H)-one [Example 260] | < 0.5 µM |
| CC(n1cnc(-c2ccccc2)cc1=O)C1(O)CCN(C(=O)C[C@@H](C)c2ccccc2)CC1 (mixture of isomers) [Example 47, 3-((R)-1-(4-Hydroxy-1-((R)-3-phenylbutanoyl)piperidin-4-yl)ethyl)-6-phenylpyrimidin-4(3H)-one and 3-((S)-1-(4-hydroxy-1-((R)-3-phenylbutanoyl)piperidin-4-yl)ethyl)-6-phenylpyrimidin-4(3H)-one] | 50 to 250 µM |
| C[C@H](CC1CCCCC1)C(=O)N1CCC(O)(Cn2cnc(-c3ccccc3)cc2=O)C(C)(C)C1 (mixture of isomers) [Example 50, 3-(((R)-1-((R)-3-Cyclohexyl-2-methylpropanoyl)-4-hydroxy-3,3-dimethylpiperidin-4-yl)methyl)-6-phenylpyrimidin-4(3H)-one and 3-(((S)-1-((R)-3-Cyclohexyl-2-methylpropanoyl)-4-hydroxy-3,3-dimethylpiperidin-4-yl)methyl)-6-phenylpyrimidin-4(3H)-one] | < 0.5 µM |
| C[C@H](CC1CCCCC1)C(=O)N1CCC(O)(Cn2cnc(-c3ccccc3F)cc2=O)C2(CCC2)C1 (mixture of isomers) [Example 51, 3-(((R)-6-((R)-3-Cyclohexyl-2-methylpropanoyl)-9-hydroxy-6-azaspiro[3.5]nonan-9-yl)methyl)-6-(2-fluorophenyl)pyrimidin-4(3H)-one and 3-(((S)-6-((R)-3-Cyclohexyl-2-methylpropanoyl)-9-hydroxy-6-azaspiro[3.5]nonan-9-yl)methyl)-6-(2-fluorophenyl)pyrimidin-4(3H)-one] | 0.5 to 5 µM |
| C[C@H](CC(=O)N1CCC(O)(Cn2cnc(-c3ccccc3)cc2=O)C(C)(C)C1)c1ccccc1 (mixture of isomers) [Example 53, 3-(((S)-4-Hydroxy-3,3-dimethyl-1-((R)-3-phenylbutanoyl)piperidin-4-yl)methyl)-6-phenylpyrimidin-4(3H)-one and 3-(((R)-4-hydroxy-3,3-dimethyl-1-((R)-3-phenylbutanoyl)piperidin-4-yl)methyl)-6-phenylpyrimidin-4(3H)-one] | 0.5 to 5 µM |
| C[C@H](CC(=O)N1CCC(O)(Cn2cnc(-c3ccccc3)cc2=O)CC1(C)C)c1ccccc1 (mixture of isomers) [Example 61, 3-(((R)-4-Hydroxy-2,2-dimethyl-1-((R)-3-phenylbutanoyl)piperidin-4-yl)methyl)-6-phenylpyrimidin-4(3H)-one and 3-(((S)-4-Hydroxy-2,2-dimethyl-1-((R)-3-phenylbutanoyl)piperidin-4-yl)methyl)-6-phenylpyrimidin-4(3H)-one] | 50 to 250 µM |
| CC(C)N(C)C(=O)c1cn(CC2(O)CCN(C(=O)[C@H](C)CC3CCCCC3)CC2(C)C)c(=O)cc1-c1ccccc1 (mixture of isomers) [Example 73, 1-(((R)-1-((R)-3-Cyclohexyl-2-methylpropanoyl)-4-hydroxy-3,3-dimethylpiperidin-4-yl)methyl)-N-isopropyl-N-methyl-6-oxo-4-phenyl-1,6-dihydropyridine-3-carboxamide and 1-(((S)-1-((R)-3-Cyclohexyl-2-methylpropanoyl)-4-hydroxy-3,3-dimethylpiperidin-4-yl)methyl)-N-isopropyl-N-methyl-6-oxo-4-phenyl-1,6-dihydropyridine-3-carboxamide] | < 0.5 µM |
| CC(CC1CCC1)C(=O)N1CCC(O)(Cn2cc(C(=O)N3CCCCC3)c(-c3ccccc3)cc2=O)CC1 (racemic) [Example 15, (R,S)-1-((3-Cyclobutyl-2-methylpropanoyl)-4-hydroxypiperidin-4-yl)methyl)-4-phenyl-5-(piperidine-1-carbonyl)pyridin-2(1H)-one] | 5 to 50 µM |
| CCC(n1cnc(-c2ccccc2)cc1=O)C1(O)CCN(C(=O)[C@H](C)CC2CCCCC2)CC1 (stereo partly drawn) [Example 43, 3-((S)-1-(1-((R)-3-Cyclohexyl-2-methylpropanoyl)-4-hydroxypipendin-4-yl)propyl)-6-phenylpyrimidin-4(3H)-one and 3-((R)-1-(1-((R)-3-cyclohexyl-2-methylpropanoyl)-4-hydroxypipendin-4-yl)propyl)-6-phenylpyrimidin-4(3H)-one] | 5 to 50 µM |

Other lines, results leading:

| IC50 | Compound |
| --- | --- |
| < 0.5 µM | O=C([C@@H]1CNC[C@H]1c1ccccc1)N1CC[C@@](O)(Cn2cnc(-c3ccccc3)cc2=O)C2(CCCC2)C1 (mixture of isomers) [Example 259, 3-(((S)-10-Hydroxy-7-((3S,4R)-4-phenylpyrrolidine-3-carbonyl)-7-azaspiro[4.5]decan-10-yl)methyl)-6-phenylpyrimidin-4(3H)-one and 3-(((S)-10-Hydroxy-7-((3R,4S)-4-phenylpyrrolidine-3-carbonyl)-7-azaspiro[4.5]decan-10-yl)methyl)-6-phenylpyrimidin-4(3H)-one] |
| < 0.5 µM | C[C@H](CC1CCCCC1)C(=O)N1CCC(O)(Cn2cnc(-c3ccccc3F)cc2=O)C2(CCCC2)C1 (stereo partly drawn) [Example 119, 3-((7-((R)-3-Cyclohexyl-2-methylpropanoyl)-10-hydroxy-7-azaspiro[4.5]decan-10-yl)methyl)-6-(2-fluorophenyl)pyrimidin-4(3H)-one] |
| < 0.5 µM | CC(C)N(C)C(=O)c1cn(C[C@]2(O)CCN(C(=O)[C@H](C)CC3CCCCC3)CC2(C)C)c(=O)cc1-c1ccccc1 [Example 120, 1-(((S)-1-((R)-3-Cyclohexyl-2-methylpropanoyl)-4-hydroxy-3,3-dimethylpiperidin-4-yl)methyl)-N-isopropyl-N-methyl-6-oxo-4-phenyl-1,6-dihydropyridine-3-carboxamide] |
| < 0.5 µM | C[C@H](CC1CCCCC1)C(=O)N1CC[C@@](O)(Cn2cc(C(=O)N(C)C)c(-c3ccccc3)cc2=O)C(C)(C)C1 [Example 121, 1-(((S)-1-((R)-3-Cyclohexyl-2-methylpropanoyl)-4-hydroxy-3,3-dimethylpiperidin-4-yl)methyl)-N,N-dimethyl-6-oxo-4-phenyl-1,6-dihydropyridine-3-carboxamide] |
| < 0.5 µM | C[C@H](CC1CCCCC1)C(=O)N1CC[C@@](O)(Cn2cc(C(=O)N3CCCC3)c(-c3ccccc3)cc2=O)C(C)(C)C1 [Example 123, 1-(((S)-1-((R)-3-Cyclohexyl-2-methylpropanoyl)-4-hydroxy-3,3-dimethylpiperidin-4-yl)methyl)-4-phenyl-5-(pyrrolidine-1-carbonyl)pyridin-2(1H)-one] |
| < 0.5 µM | C[C@H](CC1CCCCC1)C(=O)N1CC[C@@](O)(Cn2cc(C(=O)N3CCNCC3)c(-c3ccccc3)cc2=O)C(C)(C)C1 [Example 124, 1-(((S)-1-((R)-3-Cyclohexyl-2-methylpropanoyl)-4-hydroxy-3,3-dimethylpiperidin-4-yl)methyl)-4-phenyl-5-(piperazine-1-carbonyl)pyridin-2(1H)-one] |
| < 0.5 µM | C[C@H](CC1CCCCC1)C(=O)N1CCC(O)(Cn2cnc(-c3ccsc3)cc2=O)C(C)(C)C1 (some centres unmarked) [Example 135] |
| < 0.5 µM | C[C@H](CC1CCCCC1)C(=O)N1CCC(O)(Cn2cnc(-c3cccc(CO)c3)cc2=O)C(C)(C)C1 (some centres unmarked) [Example 138] |
